Reference: patent publication US20220062294A1, “PHARMACEUTICAL COMPOSITIONS OF TETRACYCLIC QUINOLONE ANALOGS AND THEIR SALTS” (Senhwa Biosciences, Inc., priority 2020, published 2022)

How the values were obtained:
[1] = tested on: multiple cancer cell lines; experiment: Alamar Blue cell viability assay, overall statement on cancer cell lines; assay type: cell-based
Method: The effect of Compound I on cell viability was assessed by Alamar Blue assay of metabolic activity in various cancer cell lines.

[2] = tested on: BRCA2 knockout tumor cells; experiment: Xenograft model, BRCA2 knockout vs isogenic wild type tumor cells; assay type: in vivo; conditions: BRCA2 knockout tumor cells in a xenograft model, compared with isogenic wild type control cells
normal cells = experiment: Alamar Blue cell viability assay, overall statement on normal cells; assay type: cell-based
BRCA1/2 deficient cells = experiment: Toxicity against BRCA1/2 deficient cell lines; assay type: cell-based; conditions: cell lines of different genetic backgrounds (colon, breast and ovary), mouse and human
[3] = tested on: metastatic, recurrent, locally, advanced, or unresectable solid malignancy; experiment: Pharmacokinetic and dose escalation study in patients with solid malignancy (Example 6); assay type: in vivo, human
Method: In pharmacokinetic and dose escalation studies, wadult patients with metastatic, recurrent, locally, advanced, or unresectable solid malignancy (patients with histologically and/or cytologically confirmed solid malignancy), who received prior anti-cancer treatment(s) until disease progression, at 10 different dose levels of Compound I were evaluated. Groups 1-7 were administered Compound I intravenously on days 1 and 8 of a 4-week cycle at 50, 100, 150, 200, 250, 325, and 475 mg/m^2 (solid Compound I reconstituted with 5% glucose in sterile water or similar biologically acceptable IV fluid), respectively. Groups 8-10 were administered intravenously on days 1, 8, and 15 of a 4-week cycle at 325, 475, and 650 mg/m^2, respectively. Each patient received each dose over 1 hour by IV infusion on days described above.
18 Patients were diagnosed with metastatic breast cancer.
12 Patients harbored BRCA1 or BRCA2 mutation. From the same group of 12 patients harboring BRCA1 or BRCA2 mutation, 8 patients had breast cancer (FIG. 2). Of the 8 patients, 6 patients harbored BRCA2 mutation and had breast cancer (FIG. 3). In FIGS. 1-3, each bar represents an individual in a treatment Group as indicated by the Group number corresponding to the treatment Groups.

For `Cc1cnc(CNC(=O)c2c(=O)c3ccc(N4CCCN(C)CC4)nc3n3c2sc2ccccc23)cn1` [Compound I, 2-(4-Methyl-[1,4]diazepan-1-yl)-5-oxo-5H-7-thia-1,11b-diaza-benzo[c]fluorene-6-carboxylic acid (5-methyl-pyrazin-2-ylmethyl)-amide], the antiproliferative activity [1] was “antiproliferation activity”, the “therapeutic index of activity” value [2] was “wide therapeutic index” and the “activity in normal cells compared with cancer cell lines” value (normal cells) was “significantly less active”. For the same compound, the “toxicity against BRCA1/2 deficient cells” value (BRCA1/2 deficient cells) was “specific toxicity”, the “response to Compound I treatment” value ([3]; one patient of Group 10 (650 mg/m^2 IV, days 1, 8, 15 of 4-week cycle) with PALB2 mutation and BRCA2 mutation) was “partial response (PR)” and the “response to Compound I treatment” value ([3]; patients with BRCA2 mutation, dose greater than or equal to 150 mg/m^2, IV) was “tumor shrinkage”.
